# Laboratory results published in patent US12414976B2, “Pharmaceutical composition for preventing hair loss or promoting hair growth, comprising ginsenoside RG4 or mixture (Rgx 365) of ginsenosides Rg2, Rg4, Rg6, and Rh1 as active ingredient” (AREZ CO., LTD., priority 2019, dated 2025).
# Assays:
# [1] = test system: human hair follicle dermal papilla cells; assay: WST-1 cell viability assay; format: cell-based; conditions: 48 hours, various concentrations, vs non-treated group
# Protocol: With reference to the documents [Topouzi, H. et al., Exp Dermatol., 26(6), 491-496, 2017; Higgins, C. A. et al., Proc Natl Acad Sci USA., 110(49), 19679-19688, 2013; Higgins, C. A. et al., Exp Dermatol., 19(6), 546-548, 2010], human hair follicle dermal papilla (HDP) cells were incubated in a general 2D monolayer culture manner and in a 3D spheroid culture manner as in the actual human follicle structure.
# First, for 2D monolayer culture, human hair follicle dermal papilla cells were cultured in a mesenchymal stem cell medium (MSCM) (Innoprot, Bizakaia, Spain) supplemented with 5% fetal bovine serum (FBS, Thermo Fisher Scientific, Inc., Waltham, MA, USA) in an incubator maintaining the condition of 37° C. and 5% CO2. […]
# First, the human hair follicle dermal papilla cells cultured in a 2D or 3D manner in Experimental Example 1 were seeded at a density of 1×10^4 cells/well into 96-well plates (96-well round-bottom ultra-low attachment microplates) and incubated at 37° C. for 24 hours in a 5% CO2 atmosphere. […] Then, 10 μl of the WST-1 solution was added to the culture and incubated for 30 min before reading absorbance at 450 nm on an iMark microplate reader (Bio-Rad Laboratories, Hercules, CA, USA). […]
# [2] = test system: human hair follicle dermal papilla cells; assay: Formation and size of 3D spheroids (phase-contrast microscope); format: cell-based; conditions: 3D culture, 48 hours
# Protocol: (§1) Next, for 3D spheroid culture, human hair follicle dermal papilla cells were cultured in a plate (round-bottom ultra-low attachment microplate, Corning, NY, USA) containing the stem cell medium supplemented with 5% fetal bovine serum at 37° C. under a 5% CO2 atmosphere.
# Referring to the document [Higgins, C. A. et al., Exp Dermatol., 19(6), 546-548, 2010; Higgins, C. A. et al., Proc Natl Acad Sci USA., 110(49), 19679-19688, 2013; Kang, B. M. et al., J Invest Dermatol., 132(1), 237-239, 2012], a 3D spheroid culture of human hair follicle dermal papilla cells is reported to induce better formation and growth of hair follicles, compared to a 2D culture of human hair follicle dermal papilla cells. In addition, the document [Whiting, D. A., J Am Acad Dermatol., 45(3 Suppl), S81-S86, 2001; de Lacharriere, O. et al., Arch Dermatol., 137(5), 641-646, 2001; Jahoda, C. A., Exp Dermatol., 7(5), 235-248, 1998] reports that a decrease in the size of dermal papilla may cause follicle miniaturization in patients with hair loss. The Examples of the present disclosure were examined for effects of preventing hair loss and promoting hair growth by monitoring the formation and size of 3D spheroids after application to the 3D spheroid culture of Experimental Example 1.
# First, the formation and size change of 3D spheroids of human hair follicle dermal papilla cells were observed. In this regard, the 3D spheroid culture of cells in Experimental Example 1 was seeded at a density of 5×10^4 cells/well into 96-well plates (96-well round-bottom ultra-low attachment microplates) and incubated for 48 hours with predetermined concentrations of Examples 1 and 2 and Comparative Example 1 (ginsenoside Rg2). Thereafter, the human dermal papilla cells were observed under a phase-contrast microscope to see whether the cells formed 3D spheroids and to measure sizes of the spheroids.
# TCF/LEF = TCF/LEF luciferase reporter assay (TOPFlash/FOPFlash), Wnt/β-catenin signaling; format: cell-based; conditions: HEK293 cells, 20 μg/ml, 24 hours, vs non-treated group (control)
# Protocol: HEK293 cells were cultured in DMEM (Dulbecco's Modified Eagle's Medium, Thermo Fisher Scientific, Inc.) supplemented with 10% fetal bovine serum, penicillin (50 U/ml), and streptomycin (50 U/ml) under the condition of 37° C. and 5% CO2.
# Whether the Wnt/β-catenin signaling is activated or not was determined using a TCF/LEF luciferase reporter plasmid (TOPFlash, Merck-Millipore, Darmstadt, Germany) designed to specifically react with the transcription factor TCF/LEF activated by β-catenin, and a reporter plasmid having a mutation caused in the promoter thereof (FOPFlash, Merck-Millipore, Darmstadt, Germany).
# First, the TCF/LEF luciferase reporter plasmid (TOPFlash (TCF/LEF-wt) or FOPFlash (TCF/LEF-mut)) and a β-galactosidase plasmid were transfected into the HEK293 cells cultured in Experimental Example 1 with the aid of Lipofectamine 3000 (Invitrogen, Thermo Fisher Scientific, Inc.). After being incubated with 20 μg/ml of Example 1 for 24 hours, the transfected cells were lysed with a passive lysis buffer (Promega, Madison, WI, USA). The cell lysate thus formed was added with D-luciferin and measured for luciferase activity by Glomax 96 Microplate Luminometer (Turner Biosystem, Sunnyvale, CA, USA). β-Galactosidase activity was measured with the aid of Luminescent β-galactosidase Detection Kit II (Clontech Laboratories Inc., USA). […]
# LEF1 = assay: Real-time PCR mRNA expression, Wnt/β-catenin signaling; format: cell-based, human; conditions: 3D spheroid culture, 20 μg/ml, 48 hours, relative to β-actin, vs non-treated group (control)
# Protocol: as §1
# (§2) Next, in order to confirm the luciferase activity results, mRNA analysis was performed on β-catenin, WNT5A, and LEF1, which are involved in the Wnt/β-catenin signaling. First, a 3D spheroid culture of human hair follicle dermal papilla cells was treated with Example 1 (20 μg/ml) for 48 hours, followed by RNA extraction with a TRIzol solution (Invitrogen, Thermo Fisher Scientific). From 2 μg of the RNA extract, cDNA was synthesized in the presence of M-MLV reverse transcriptase. The synthesized cDNA was mixed with HOT FIREPol EvaGreen qPCR Mix Plus solution (Solis BioDyne, Tartu, Estonia) and each of primer sets for the Wnt/β-catenin target genes β-catenin, WNT5A, and LEF1 and subjected to Step OnePlus Real-Time PCR (Applied Biosystems; Thermo Fisher Scientific). Relative to the expression of β-actin housekeeping gene, an expression level of each gene was derived. Analysis results of mRNA expressions are depicted in FIGS. 5B to 5D.
# WNT5A = assay: as above; format: cell-based, human; conditions: 3D spheroid culture, 20 μg/ml, 48 hours, relative to β-actin, vs non-treated group (control)
# Protocol: as §1, §2
# β-catenin = assay: as above; format: cell-based, human; conditions: 3D spheroid culture, 20 μg/ml, 48 hours, relative to β-actin, vs non-treated group (control)
# Protocol: as §1, §2
# ALPL = assay: Real-time PCR mRNA expression, dermal papilla signature gene; format: cell-based, human; conditions: 3D spheroid culture, vs non-treated control
# Protocol: as §1, §2
# (§3) After being applied to the 3D spheroid culture of human hair follicle dermal papilla cells in Experimental Example 1, the Examples of the present disclosure were examined for the effect of preventing hair loss and promoting hair growth by monitoring mRNA expression levels of ALPL, VCAN, BMP2, and FGF7.
# (§4) The mRNA expression analysis of ALPL, VCAN, BMP2, and FGF7 was carried out in the same manner as for β-catenin, WNT5A, and LEF1 in Experimental Example 3-2, with the exception of using primer sets for ALPL, VCAN, FGF7, and BMP2 instead of those for β-catenin, WNT5A, and LEF1. The mRNA expression analysis data are depicted in FIGS. 6 and 7.
# BMP2 = assay: as above; format: cell-based, human; conditions: 3D spheroid culture, vs non-treated control
# Protocol: as §1, §2, §3, §4
# FGF7 = assay: as above; format: cell-based, human; conditions: 3D spheroid culture, vs non-treated control
# Protocol: as §1, §2, §3, §4
# VCAN = assay: as above; format: cell-based, human; conditions: 3D spheroid culture, vs non-treated control
# Protocol: as §1, §2, §3, §4
smiles,measurement,setting,value
"CC(C)=CC/C=C(/C)[C@H]1CC[C@]2(C)[C@@H]1[C@H](O)C[C@@H]1[C@@]3(C)CC[C@H](O)C(C)(C)[C@@H]3[C@@H](O[C@@H]3O[C@H](CO)[C@@H](O)[C@H](O)[C@H]3O[C@@H]3O[C@@H](C)[C@H](O)[C@@H](O)[C@H]3O)C[C@]12C [Example 1, ginsenoside Rg4]",cell viability,[1]; 2D (monolayer) cultured cells,the same cell viability
same,cell viability,[1]; 3D (spheroid) cultured cells,the same cell viability
same,"number of 3D spheroids, increase compared to ginsenoside Rg2 of Comparative Example 1",[2]; FIG. 3C,two to three folds
same,"size of 3D spheroids, increase compared to ginsenoside Rg2 of Comparative Example 1",[2]; FIG. 3C,two to three folds
same,number of 3D spheroids,[2]; vs non-treated group,increase the number and size of 3D spheroids in a concentration-dependent manner
same,size of 3D spheroids,[2]; vs non-treated group,increase the number and size of 3D spheroids in a concentration-dependent manner
same,activation of TCF/LEF (luciferase activity),TCF/LEF,two folds or more
same,mRNA expression level of LEF1,LEF1,two folds or more
same,mRNA expression level of WNT5A,WNT5A,two folds or more
same,mRNA expression level of β-catenin,β-catenin,two folds or more
same,mRNA expression level of ALPL,ALPL,increased
same,mRNA expression level of BMP2,BMP2,increased
same,mRNA expression level of FGF7,FGF7,increased
same,mRNA expression level of VCAN,VCAN,increased
